Measurements: patent US20250120967A1, “TYROSINE KINASES INHIBITORS AND USES THEREOF” (GREAT NOVEL THERAPEUTICS BIOTECH & MEDICALS CORPORATION, priority 2023, published 2025)

Columns and labels:
Assay in all cases: Tyrosine kinase inhibition assay
Assay type in all cases: biochemical
Conditions in all cases: single concentration 1.0 μM, read-out: percent inhibition
[1] = target: T1, EPHA3 (Homo sapiens, UniProt P29320)
T1 sequence (P29320 21-983): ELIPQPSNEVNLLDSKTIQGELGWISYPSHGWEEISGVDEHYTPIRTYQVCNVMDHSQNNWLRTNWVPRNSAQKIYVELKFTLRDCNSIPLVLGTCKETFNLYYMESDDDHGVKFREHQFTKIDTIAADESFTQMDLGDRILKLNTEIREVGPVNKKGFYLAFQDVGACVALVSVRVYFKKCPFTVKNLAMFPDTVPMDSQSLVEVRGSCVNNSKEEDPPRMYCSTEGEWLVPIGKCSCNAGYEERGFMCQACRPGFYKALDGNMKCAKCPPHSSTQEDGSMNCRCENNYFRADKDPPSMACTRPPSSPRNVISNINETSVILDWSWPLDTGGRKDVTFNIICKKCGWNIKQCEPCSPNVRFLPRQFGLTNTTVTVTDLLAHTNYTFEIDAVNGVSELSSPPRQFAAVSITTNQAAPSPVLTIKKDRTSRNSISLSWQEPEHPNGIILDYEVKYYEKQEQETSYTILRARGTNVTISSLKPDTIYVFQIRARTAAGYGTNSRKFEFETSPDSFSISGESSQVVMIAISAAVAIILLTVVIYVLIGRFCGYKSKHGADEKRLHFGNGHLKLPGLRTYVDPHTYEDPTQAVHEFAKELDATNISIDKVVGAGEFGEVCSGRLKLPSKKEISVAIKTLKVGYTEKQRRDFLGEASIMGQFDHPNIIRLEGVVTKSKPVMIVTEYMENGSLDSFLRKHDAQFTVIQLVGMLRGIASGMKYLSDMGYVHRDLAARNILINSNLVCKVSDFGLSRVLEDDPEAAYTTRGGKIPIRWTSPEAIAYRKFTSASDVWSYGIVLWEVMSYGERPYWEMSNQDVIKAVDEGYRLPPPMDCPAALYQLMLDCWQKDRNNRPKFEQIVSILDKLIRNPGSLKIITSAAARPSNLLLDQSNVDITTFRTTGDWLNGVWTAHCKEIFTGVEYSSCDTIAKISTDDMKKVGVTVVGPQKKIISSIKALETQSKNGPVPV
Procedure, shortened: (§1)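 Percent inhibition from a one-concentration (1.0 μM) Z′-LYTE biochemical screen at apparent-Km ATP; >80% scored as a hit.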

[2] = target: T2, EPHA6 (Homo sapiens, UniProt Q9UF33)
T2 sequence (Q9UF33 23-1036): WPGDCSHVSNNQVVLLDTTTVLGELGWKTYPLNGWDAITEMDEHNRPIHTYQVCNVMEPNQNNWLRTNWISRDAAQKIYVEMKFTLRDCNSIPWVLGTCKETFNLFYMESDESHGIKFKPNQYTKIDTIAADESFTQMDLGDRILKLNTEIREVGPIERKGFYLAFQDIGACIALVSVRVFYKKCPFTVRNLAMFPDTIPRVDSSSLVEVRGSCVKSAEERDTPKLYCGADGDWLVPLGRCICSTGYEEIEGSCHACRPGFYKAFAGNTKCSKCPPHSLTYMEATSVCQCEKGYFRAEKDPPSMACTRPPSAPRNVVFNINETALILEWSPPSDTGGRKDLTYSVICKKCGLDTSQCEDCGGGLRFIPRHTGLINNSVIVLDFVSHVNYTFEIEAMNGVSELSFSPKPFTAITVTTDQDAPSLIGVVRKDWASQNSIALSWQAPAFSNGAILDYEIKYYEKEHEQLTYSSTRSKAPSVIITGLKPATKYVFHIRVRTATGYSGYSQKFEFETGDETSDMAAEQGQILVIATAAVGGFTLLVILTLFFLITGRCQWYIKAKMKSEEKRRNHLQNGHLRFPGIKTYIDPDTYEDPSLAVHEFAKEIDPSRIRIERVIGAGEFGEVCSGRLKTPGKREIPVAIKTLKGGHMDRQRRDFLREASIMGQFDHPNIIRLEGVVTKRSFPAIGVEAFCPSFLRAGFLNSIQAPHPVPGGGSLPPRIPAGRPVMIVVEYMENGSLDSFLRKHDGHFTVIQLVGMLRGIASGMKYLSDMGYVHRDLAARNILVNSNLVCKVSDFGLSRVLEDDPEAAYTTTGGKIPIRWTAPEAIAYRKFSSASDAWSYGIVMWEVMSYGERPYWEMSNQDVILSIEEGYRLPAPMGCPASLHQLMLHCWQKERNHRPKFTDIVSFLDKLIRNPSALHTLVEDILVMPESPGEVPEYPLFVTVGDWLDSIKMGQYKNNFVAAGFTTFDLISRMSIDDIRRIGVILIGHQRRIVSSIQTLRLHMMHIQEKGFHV
Procedure, shortened: as §1

[3] = target: PTK6 (Brk) (Homo sapiens, UniProt Q13882)
Procedure, shortened: as §1

Sequence of PTK6 (Brk) (Q13882 whole entry): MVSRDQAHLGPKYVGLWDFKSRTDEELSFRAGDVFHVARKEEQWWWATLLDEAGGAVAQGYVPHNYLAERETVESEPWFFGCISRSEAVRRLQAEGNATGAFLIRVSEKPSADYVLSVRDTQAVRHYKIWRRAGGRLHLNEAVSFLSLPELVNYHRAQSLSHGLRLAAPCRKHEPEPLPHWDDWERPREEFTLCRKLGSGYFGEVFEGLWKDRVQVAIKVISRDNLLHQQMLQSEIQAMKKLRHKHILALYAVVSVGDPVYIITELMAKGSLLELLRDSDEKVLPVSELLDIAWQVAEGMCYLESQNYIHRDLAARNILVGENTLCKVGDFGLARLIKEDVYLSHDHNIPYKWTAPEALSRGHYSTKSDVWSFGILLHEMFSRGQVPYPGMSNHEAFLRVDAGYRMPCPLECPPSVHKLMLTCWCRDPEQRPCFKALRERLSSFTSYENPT

SMILES | inhibition at 1 µM [1] [%] | inhibition at 1 µM [2] [%] | inhibition at 1 µM [3] [%]
COc1cc2nccc(Oc3ccc(NC(=O)C4(C(=O)Nc5ccc(F)cc5)CC4)cc3)c2cc1OC [Cabozantinib, reference compound] | 100 | 103 | 103
COc1cc2nccc(Oc3ccc(NC(=O)C4(NC(=O)c5ccc(F)cc5)CC4)cc3F)c2cc1OC [Cbo-02, N-(1-((4-((6,7-diMethoxyquinolin-4-yl)oxy)-3-fluorophenyl)carbamoyl)cyclopropyl)-4-fluorobenzamide] | -3 | 75 | 73
COc1cc2nccc(Oc3ccc(NC(=O)C4(NC(=O)c5ccc(F)cc5)CC4)cc3F)c2cc1Oc1ccc(N)cc1F [Cbo-10] | 14 | 94 | 91
COc1cc2nccc(Oc3ccc(NC(=O)C4(NC(=O)c5ccc(F)cc5)CC4)cc3F)c2cc1Oc1c(F)cc(N)cc1F [Cbo-14] | 24 | 96 | 94
COc1cc2nccc(Oc3ccc(NC(=O)C4(C(=O)Nc5ccc(F)cc5)CC4)cc3F)c2cc1Oc1ccc(N)cc1F [Cbo-23] | 97 | 100 | 97
